# Patent publication US20230348917A1, “EXPRESSION VECTOR FOR USE IN METHANOTROPH” (priority 2020, published 2023)
# Key:
# [1] = test system: dTomato expression in M. trichosporium OB3b; test: dTomato expression by fluorescence (microplate reader, FACS) in transconjugated M. trichosporium OB3b; assay type: cell-based, Methylosinus trichosporium OB3b; conditions: pAWP89S-Ptet-dTomato plasmid; aTc induction
# Description: For analysis of the expression level by fluorescence, 200 μl was sampled in a 96-well plate and a Tecan microplate reader (excitation: 535 nm, emission: 590 nm) was used. FACS analysis was performed using BD Biosciences FACSCalibur equipment (excitation: 488 nm, emission: 585 nm).
# M. trichosporium OB3b transconjugated with the pAWP89S-Ptet-dTomato plasmid was treated with anhydrotetracycline (aTc) at 0 μM, 0.5 μM, 1 μM, or 2 μM, respectively, to induce expression, and the expression of the fluorescent protein dTomato was examined for 8 days. The experiment was performed by the method of Experimental Example 3 above.
# [2] = test system: M. capsulatus Bath with the pAWP89S-Po-dTomato plasmid; conditions: 0.5 mM benzene, 24 hours
# Description: It was confirmed whether dTomato could be induced with benzene under sMMO expression conditions (copper-deficient medium).
# The M. capsulatus Bath with the pAWP89S-Po-dTomato plasmid were cultured under sMMO expression condition (copper-deficient medium) and pMMO expression condition (copper-containing medium) while supplying 0.5 mM benzene for 24 hours. A strain supplied with 10 μM of phenol was used as a control group.
# M. capsulatus Bath [3] = test: Toxicity test of isoprene and epoxy isoprene (growth assay); assay type: cell-based, Methylococcus capsulatus Bath; conditions: various concentrations of isoprene, or 1.35 and 13.5 mg/L epoxyisoprene; for growth of the strain expressing sMMO: absence of copper; for growth of the cells expressing pMMO: presence of copper
# Description: To analyze the toxicity of isoprene and epoxyisoprene using wild-type strains, 2 mL cultures were transferred to 150 mL serum bottle containing 19 ml NMS medium with or without 10 μM CuCl2. After incubation for 6.5 to 7.5 hours, an appropriate amount of isoprene or epoxy isoprene (2-methyl-2-vinyloxirane) diluted in dodecane was added. The bottle was sealed, 50% of the headspace was replaced with methane, and the bottle was further incubated. Sampling of 1 mL cultures for cell density measurement was performed at appropriate time intervals using a disposable syringe without reopening the bottle.
# To examine the potential toxicity of isoprene produced in M. capsulatus Bath, growth assays were performed in the presence of various concentrations of isoprene while regulating the expression of sMMO and pMMO enzymes by controlling the addition of copper.
# In addition, in order to examine whether the growth inhibition of the strain was due to the oxidation of isoprene by sMMO, the strain growth was analyzed in the presence of 1.35 and 13.5 mg/L of epoxyisoprene, an oxidation product of isoprene. As a result, it was confirmed that the growth of both the sMMO-expressing strain and the pMMO-expressing strain were reduced depending on the concentration of the epoxy isoprene treated above ((d) and (e) in FIG. 17).
# [4] = test system: dTomato expression in M. capsulatus Bath; test: dTomato expression by fluorescence in transconjugated M. capsulatus Bath; assay type: cell-based, Methylococcus capsulatus Bath; conditions: pAWP89S-Po-dTomato plasmid; 10 μM phenol
# Description: (§1) The transconjugated M. capsulatus Bath and M. trichosporium OB3b were inoculated by 10% in NMS medium containing 25 μg/ml kanamycin and 10 μM CuCl2. For the methanotrophs transconjugated with the pAWP89S-Po-dTomato, 10 μM of phenol was contained in the medium. After sealing, 50% methane gas was substituted in the headspace. The recombinant M. capsulatus Bath was cultured at 37° C. for 24 hours or 44 to 48 hours, and therecombinant M. trichosporium OB3b was cultured at 30° C.
# M. capsulatus Bath [5] = conditions: pAWP89S-Po-dTomato strain; 100 μM phenol compared with 10 μM phenol
# Description: as §1
structure (smiles),measurement,setting,value
"Cc1c2c(c(O)c3c(O)cccc13)C(=O)[C@]1(O)C(=O)C(C(N)=O)=C(O)[C@@H](N(C)C)[C@@H]1C2 [aTc, anhydrotetracycline]",FACS distribution of dTomato fluorescence of individual cells,[1],two peaks were formed
same,time required for expression to be most active,[1],about 8 days
c1ccccc1 [benzene],dTomato expression (fluorescence value),[2]; pMMO expression condition (copper-containing medium),relatively small fluorescence value
same,dTomato expression,[2]; sMMO expression condition (copper-deficient medium),highly induced
"C=CC1(C)CO1 (stereo not shown) [epoxyisoprene, 2-methyl-2-vinyloxirane]",growth of the strain expressing sMMO,M. capsulatus Bath [3],reduced
same,growth of the cells expressing pMMO,M. capsulatus Bath [3],reduced
C=CC(=C)C [isoprene],growth of the strain expressing sMMO,M. capsulatus Bath [3],reduced
same,growth of the cells expressing pMMO,M. capsulatus Bath [3],unaffected
Oc1ccccc1 [phenol],time after phenol supply at which fluorescence due to dTomato expression was observed,[4],5 h
same,strain growth,M. capsulatus Bath [5],inhibited
